biological target: T1, human PAH with the R408W mutation (Homo sapiens, UniProt P00439, R408W); test: Cell Based Phenylalanine Flux Assay; settings: A375 cells expressing human R408W PAH; 24 hrs compound incubation; 13C-Tyrosine by LC-MS; average where tested multiple times; read-out: AC50
T1 construct: expressed in transfected cells
T1 sequence (P00439 1-452 R408W): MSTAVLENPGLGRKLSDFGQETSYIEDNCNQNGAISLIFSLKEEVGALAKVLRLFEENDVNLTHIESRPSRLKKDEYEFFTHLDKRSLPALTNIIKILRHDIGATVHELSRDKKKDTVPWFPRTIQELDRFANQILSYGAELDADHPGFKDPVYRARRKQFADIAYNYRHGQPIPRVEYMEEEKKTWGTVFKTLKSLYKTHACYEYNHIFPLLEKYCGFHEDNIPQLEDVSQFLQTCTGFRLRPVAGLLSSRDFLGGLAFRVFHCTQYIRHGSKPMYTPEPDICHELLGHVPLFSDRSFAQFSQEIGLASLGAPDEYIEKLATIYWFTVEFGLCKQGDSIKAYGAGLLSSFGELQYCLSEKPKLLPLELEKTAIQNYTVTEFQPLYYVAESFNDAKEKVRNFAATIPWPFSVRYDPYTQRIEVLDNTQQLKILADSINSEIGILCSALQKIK

Compound | AC50
CC(=O)Cn1cc(C(=O)N2CCc3[nH]cnc3[C@@H]2c2nc3c(F)cccc3s2)c(Cl)n1 [Example 1992, (R)-1-(3-chloro-4-(4-(4-fluorobenzo[d]thiazol-2-yl)-4,5,6,7-tetrahydro-1H-imidazo[4,5-c]pyridine-5-carbonyl)-1H-pyrazol-1-yl)propan-2-one] | > 5 µM
CC(C)(O)Cn1cc(C(=O)N2CCc3[nH]cnc3[C@@H]2c2nc3c(F)cccc3s2)c(Cl)n1 [Example 1993, (R)-(3-chloro-1-(2-hydroxy-2-methylpropyl)-1H-pyrazol-4-yl)(4-(4-fluorobenzo[d]thiazol-2-yl)-6,7-dihydro-1H-imidazo[4,5-c]pyridin-5(4H)-yl)methanone] | 1 to 5 µM
CC(C)(O)Cn1cc(C(=O)N2CCc3[nH]cnc3[C@H]2c2nc3c(F)cccc3s2)c(Cl)n1 [Example 1994] | 1 to 5 µM
O=C(c1oc(C2(O)CC2)nc1C(F)F)N1CCc2[nH]cnc2[C@H]1c1nc2c(F)cccc2s1 [Example 1995] | < 0.5 µM
O=C(c1oc(C2(O)CC2)nc1C(F)F)N1CCc2[nH]cnc2[C@@H]1c1nc2c(F)cccc2s1 [Example 1996, (R)-(4-(difluoromethyl)-2-(1-hydroxycyclopropyl)oxazol-5-yl)(4-(4-fluorobenzo[d]thiazol-2-yl)-6,7-dihydro-1H-imidazo[4,5-c]pyridin-5(4H)-yl)methanone] | 1 to 5 µM
Cc1nc(C(C)(C)C#N)oc1C(=O)N1CCc2[nH]cnc2[C@@H]1c1nc2c(F)cccc2s1 [Example 1997, (R)-2-(5-(4-(4-fluorobenzo[d]thiazol-2-yl)-4,5,6,7-tetrahydro-1H-imidazo[4,5-c]pyridine-5-carbonyl)-4-methyloxazol-2-yl)-2-methylpropanenitrile] | 1 to 5 µM
Cc1nc(C(C)(C)C#N)oc1C(=O)N1CCc2[nH]cnc2[C@H]1c1nc2c(F)cccc2s1 [Example 1998, (S)-2-(5-(4-(4-fluorobenzo[d]thiazol-2-yl)-4,5,6,7-tetrahydro-1H-imidazo[4,5-c]pyridine-5-carbonyl)-4-methyloxazol-2-yl)-2-methylpropanenitrile] | < 0.5 µM
O=C(c1cnn(C2CC2)c1C(F)F)N1CCc2[nH]cnc2[C@H]1c1nc2c(F)cccc2s1 [Example 1999, (S)-(1-cyclopropyl-5-(difluoromethyl)-1H-pyrazol-4-yl)(4-(4-fluorobenzo[d]thiazol-2-yl)-6,7-dihydro-1H-imidazo[4,5-c]pyridin-5(4H)-yl)methanone] | 0.5 to 1 µM
O=C(c1cnn(C2CC2)c1C(F)F)N1CCc2[nH]cnc2[C@@H]1c1nc2c(F)cccc2s1 [Example 2000, (R)-(1-cyclopropyl-5-(difluoromethyl)-1H-pyrazol-4-yl)(4-(4-fluorobenzo[d]thiazol-2-yl)-6,7-dihydro-1H-imidazo[4,5-c]pyridin-5(4H)-yl)methanone] | 1 to 5 µM
CC(C)n1ncc(C(=O)N2CCc3[nH]cnc3[C@H]2c2nc3c(F)cccc3s2)c1C(F)F [Example 2001, (S)-(5-(difluoromethyl)-1-isopropyl-1H-pyrazol-4-yl)(4-(4-fluorobenzo[d]thiazol-2-yl)-6,7-dihydro-1H-imidazo[4,5-c]pyridin-5(4H)-yl)methanone] | < 0.5 µM
CC(C)n1ncc(C(=O)N2CCc3[nH]cnc3[C@@H]2c2nc3c(F)cccc3s2)c1C(F)F [Example 2002, (R)-(5-(difluoromethyl)-1-isopropyl-1H-pyrazol-4-yl)(4-(4-fluorobenzo[d]thiazol-2-yl)-6,7-dihydro-1H-imidazo[4,5-c]pyridin-5(4H)-yl)methanone] | 1 to 5 µM
O=C(c1cn(CC2CC(F)(F)C2)nc1Cl)N1CCc2[nH]cnc2[C@H]1c1nc2c(F)cccc2s1 [Example 2003, (S)-(3-chloro-1-((3,3-difluorocyclobutyl)methyl)-1H-pyrazol-4-yl)(4-(4-fluorobenzo[d]thiazol-2-yl)-6,7-dihydro-1H-imidazo[4,5-c]pyridin-5(4H)-yl)methanone] | < 0.5 µM
O=C(c1cn(CC2CC(F)(F)C2)nc1Cl)N1CCc2[nH]cnc2[C@@H]1c1nc2c(F)cccc2s1 [Example 2004, (R)-(3-chloro-1-((3,3-difluorocyclobutyl)methyl)-1H-pyrazol-4-yl)(4-(4-fluorobenzo[d]thiazol-2-yl)-6,7-dihydro-1H-imidazo[4,5-c]pyridin-5(4H)-yl)methanone] | 1 to 5 µM
CC(C)(c1nc(C(F)F)c(C(=O)N2CCc3[nH]cnc3[C@H]2c2nc3c(F)cccc3s2)o1)S(C)(=O)=O [Example 2005] | < 0.5 µM
CC(C)(c1nc(C(F)F)c(C(=O)N2CCc3[nH]cnc3[C@@H]2c2nc3c(F)cccc3s2)o1)S(C)(=O)=O [Example 2006, (R)-(4-(difluoromethyl)-2-(2-(methylsulfonyl)propan-2-yl)oxazol-5-yl)(4-(4-fluorobenzo[d]thiazol-2-yl)-6,7-dihydro-1H-imidazo[4,5-c]pyridin-5(4H)-yl)methanone] | 1 to 5 µM
CC(F)(F)c1ncoc1C(=O)N1CCc2[nH]cnc2[C@H]1c1nc2c(F)cccc2s1 [Example 2007] | < 0.5 µM
CC(F)(F)c1ncoc1C(=O)N1CCc2[nH]cnc2[C@@H]1c1nc2c(F)cccc2s1 [Example 2008, (R)-(4-(1,1-difluoroethyl)oxazol-5-yl)(4-(4-fluorobenzo[d]thiazol-2-yl)-6,7-dihydro-1H-imidazo[4,5-c]pyridin-5(4H)-yl)methanone] | 1 to 5 µM
Cc1cccc2sc([C@@H]3c4nc[nH]c4CCN3C(=O)c3ocnc3C(F)(F)F)nc12 [Example 2009, (S)-(4-(4-methylbenzo[d]thiazol-2-yl)-6,7-dihydro-1H-imidazo[4,5-c]pyridin-5(4H)-yl)(4-(trifluoromethyl)oxazol-5-yl)methanone] | < 0.5 µM
Cc1cccc2sc([C@H]3c4nc[nH]c4CCN3C(=O)c3ocnc3C(F)(F)F)nc12 [Example 2010, (R)-(4-(4-methylbenzo[d]thiazol-2-yl)-6,7-dihydro-1H-imidazo[4,5-c]pyridin-5(4H)-yl)(4-(trifluoromethyl)oxazol-5-yl)methanone] | 0.5 to 1 µM
Cc1cccc2sc([C@@H]3c4nc[nH]c4CCN3C(=O)c3ocnc3C(F)F)nc12 [Example 2011] | < 0.5 µM
Cc1cccc2sc([C@H]3c4nc[nH]c4CCN3C(=O)c3ocnc3C(F)F)nc12 [Example 2012, (R)-(4-(difluoromethyl)oxazol-5-yl)(4-(4-methylbenzo[d]thiazol-2-yl)-6,7-dihydro-1H-imidazo[4,5-c]pyridin-5(4H)-yl)methanone] | 1 to 5 µM
Cc1cccc2sc([C@@H]3c4nc[nH]c4CCN3C(=O)c3cnco3)nc12 [Example 2013, (S)-(4-(4-methylbenzo[d]thiazol-2-yl)-6,7-dihydro-1H-imidazo[4,5-c]pyridin-5(4H)-yl)(oxazol-5-yl)methanone] | 0.5 to 1 µM
Cc1cccc2sc([C@H]3c4nc[nH]c4CCN3C(=O)c3cnco3)nc12 [Example 2014, (R)-(4-(4-methylbenzo[d]thiazol-2-yl)-6,7-dihydro-1H-imidazo[4,5-c]pyridin-5(4H)-yl)(oxazol-5-yl)methanone] | > 5 µM
Cc1cccc2sc([C@@H]3c4nc[nH]c4CCN3C(=O)c3ncnn3C)nc12 [Example 2015] | 0.5 to 1 µM
Cc1cccc2sc([C@H]3c4nc[nH]c4CCN3C(=O)c3ncnn3C)nc12 [Example 2016, (R)-(1-methyl-1H-1,2,4-triazol-5-yl)(4-(4-methylbenzo[d]thiazol-2-yl)-6,7-dihydro-1H-imidazo[4,5-c]pyridin-5(4H)-yl)methanone] | > 5 µM
